Assays:
518A2 = assay: cells; type: functional, cell-based; conditions: Homo sapiens, 518A2, 72 h
[1] = Cytotoxicity against human HDFa cells assessed as inhibition of cell growth incubated for 72 hrs by MTT assay; type: toxicity, cell-based
HepG2 = assay: cells; type: functional, cell-based; conditions: Homo sapiens, HepG2, 72 h
Huh-7 = assay: cells; type: functional, cell-based; conditions: Homo sapiens, Huh-7, 72 h
HCT-116 [2] = assay: cells; type: functional, cell-based; conditions: Homo sapiens, HCT-116, 72 h
[3] = target: T1, Protein deacetylase HDAC6 (Homo sapiens, UniProt Q9UBN7); assay: Inhibition of HDAC6 (unknown origin)
T1 sequence (Q9UBN7 whole entry): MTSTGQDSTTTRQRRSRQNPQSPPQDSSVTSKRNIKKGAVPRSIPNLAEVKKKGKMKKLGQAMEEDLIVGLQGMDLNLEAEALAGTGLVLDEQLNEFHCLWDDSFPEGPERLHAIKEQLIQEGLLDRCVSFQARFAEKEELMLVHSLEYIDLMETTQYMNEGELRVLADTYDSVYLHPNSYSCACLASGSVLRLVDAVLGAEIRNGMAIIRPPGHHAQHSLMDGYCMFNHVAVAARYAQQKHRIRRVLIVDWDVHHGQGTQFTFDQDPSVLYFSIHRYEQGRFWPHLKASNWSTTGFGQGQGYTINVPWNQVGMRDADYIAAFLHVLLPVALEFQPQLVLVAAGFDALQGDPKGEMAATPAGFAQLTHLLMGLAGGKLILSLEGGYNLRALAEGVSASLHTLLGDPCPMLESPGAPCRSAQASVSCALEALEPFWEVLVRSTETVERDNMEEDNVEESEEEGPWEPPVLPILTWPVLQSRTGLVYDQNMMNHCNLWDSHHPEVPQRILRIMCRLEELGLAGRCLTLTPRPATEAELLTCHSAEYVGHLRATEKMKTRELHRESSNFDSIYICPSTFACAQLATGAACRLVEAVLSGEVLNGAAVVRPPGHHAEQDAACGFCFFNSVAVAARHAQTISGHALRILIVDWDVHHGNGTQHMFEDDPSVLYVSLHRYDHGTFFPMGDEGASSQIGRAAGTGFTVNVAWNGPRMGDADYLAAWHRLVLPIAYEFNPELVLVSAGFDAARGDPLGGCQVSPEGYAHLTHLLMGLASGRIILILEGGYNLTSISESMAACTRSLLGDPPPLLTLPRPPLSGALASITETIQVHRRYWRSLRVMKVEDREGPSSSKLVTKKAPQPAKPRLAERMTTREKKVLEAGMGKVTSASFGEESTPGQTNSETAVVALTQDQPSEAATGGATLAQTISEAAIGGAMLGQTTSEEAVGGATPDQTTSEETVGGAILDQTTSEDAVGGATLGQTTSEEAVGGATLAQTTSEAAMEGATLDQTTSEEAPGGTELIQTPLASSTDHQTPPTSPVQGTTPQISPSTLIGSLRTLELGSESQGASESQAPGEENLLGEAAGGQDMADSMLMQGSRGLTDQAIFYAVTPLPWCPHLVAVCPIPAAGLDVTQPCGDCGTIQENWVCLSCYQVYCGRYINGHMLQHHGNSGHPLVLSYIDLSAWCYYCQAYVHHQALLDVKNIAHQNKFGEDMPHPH

HCT 116 TP53(-/-) = assay: cells; type: functional, cell-based; conditions: Homo sapiens, 72 h
HL-60 = assay: Antiproliferative activity against human HL-60 cells; type: functional, cell-based
MOLT-4 [4] = assay: Antiproliferative activity against human MOLT-4 cells; type: functional, cell-based
K562 = assay: Antiproliferative activity against human K562 cells; type: functional, cell-based
CCRF-HSB-2 = assay: Antiproliferative activity against human CCRF-HSB-2 cells; type: functional, cell-based
Jurkat = assay: Antiproliferative activity against human Jurkat cells; type: functional, cell-based
TALL-1 = assay: Antiproliferative activity against human TALL-1 cells; type: functional, cell-based
MCF7 [5] = assay: Antiproliferative activity against human MCF7 cells assessed as inhibition of cell growth incubated for 72 hrs by MTT assay; type: functional, cell-based; conditions: MCF7, 72 h
PC-3 = assay: Antiproliferative activity against human PC-3 cells assessed as inhibition of cell growth incubated for 72 hrs by MTT assay; type: functional, cell-based; conditions: PC-3, 72 h
SK-N-BE(2) = assay: Antiproliferative activity against human SK-N-BE(2) cells assessed as inhibition of cell growth incubated for 72 hrs by MTT assay; type: functional, cell-based; conditions: SKNBE2, 72 h
MDA-MB-231 = assay: Antiproliferative activity against human MDA-MB-231 cells assessed as inhibition of cell growth incubated for 72 hrs by MTT assay; type: functional, cell-based; conditions: MDA-MB-231, 72 h
KG-1 = assay: Antiproliferative activity against human KG-1 cells assessed as inhibition of cell growth incubated for 72 hrs by MTT assay; type: functional, cell-based; conditions: KG-1, 72 h
MOLT-4 [6] = assay: Antiproliferative activity against human MOLT-4 cells assessed as inhibition of cell growth incubated for 72 hrs by MTT assay; type: functional, cell-based; conditions: MOLT-4, 72 h
HEL = assay: Antiproliferative activity against human HEL cells assessed as inhibition of cell growth incubated for 72 hrs by MTT assay; type: functional, cell-based
A549 [7] = assay: Antiproliferative activity against human A549 cells measured after 72 hrs by MTT assay; type: functional, cell-based; conditions: A549, 72 h
Histone deacetylase 1 = Histone deacetylase 1 (Homo sapiens, UniProt Q13547); assay: Inhibition of HDAC1 (unknown origin) using Ac-peptide as substrate pretreated for 15 mins followed by substrate addition and measured after 60 mins
HCT-116 [8] = assay: Antiproliferative activity against human HCT-116 cells measured after 72 hrs by MTT assay; type: functional, cell-based; conditions: HCT-116, 72 h
MCF7 [9] = assay: Antiproliferative activity against human MCF7 cells measured after 72 hrs by MTT assay; type: functional, cell-based; conditions: MCF7, 72 h
HCT-116 [10] = assay: cells; type: functional, cell-based; conditions: Homo sapiens, HCT-116, 48 h
A549 [11] = assay: Antiproliferative activity against human A549 cells assessed as inhibition of cell growth incubated for 48 hrs by SRB assay; type: functional, cell-based; conditions: A549, 48 h
[12] = target: T1, Protein deacetylase HDAC6; assay: Inhibition of human recombinant HDAC6 using Fluor-de-Lys deacetylase as substrate by Spectrofluorimetry
HCT-116 [13] = assay: cells; conditions: Homo sapiens
[14] = target: Serine/threonine-protein kinase B-raf (Homo sapiens, UniProt P15056); assay: Inhibition of wild type BRAF (unknown origin)
[15] = target: Serine/threonine-protein kinase B-raf (Homo sapiens, UniProt P15056, V600E); assay: Inhibition of BRAF V600E mutant (unknown origin)
HL60/ADR = assay: Antiproliferative activity against human HL-60/ADR cells
[16] = Antiproliferative activity against human HL-60/Vinc cells; conditions: HL60/vinc
[17] = Cytotoxicity against HEK293 cells; type: toxicity, cell-based; conditions: human
MCF7 [18] = assay: cells; conditions: Homo sapiens

Sequence of Serine/threonine-protein kinase B-raf (Homo sapiens, UniProt P15056, V600E) (P15056 2-766 V600E limits assumed): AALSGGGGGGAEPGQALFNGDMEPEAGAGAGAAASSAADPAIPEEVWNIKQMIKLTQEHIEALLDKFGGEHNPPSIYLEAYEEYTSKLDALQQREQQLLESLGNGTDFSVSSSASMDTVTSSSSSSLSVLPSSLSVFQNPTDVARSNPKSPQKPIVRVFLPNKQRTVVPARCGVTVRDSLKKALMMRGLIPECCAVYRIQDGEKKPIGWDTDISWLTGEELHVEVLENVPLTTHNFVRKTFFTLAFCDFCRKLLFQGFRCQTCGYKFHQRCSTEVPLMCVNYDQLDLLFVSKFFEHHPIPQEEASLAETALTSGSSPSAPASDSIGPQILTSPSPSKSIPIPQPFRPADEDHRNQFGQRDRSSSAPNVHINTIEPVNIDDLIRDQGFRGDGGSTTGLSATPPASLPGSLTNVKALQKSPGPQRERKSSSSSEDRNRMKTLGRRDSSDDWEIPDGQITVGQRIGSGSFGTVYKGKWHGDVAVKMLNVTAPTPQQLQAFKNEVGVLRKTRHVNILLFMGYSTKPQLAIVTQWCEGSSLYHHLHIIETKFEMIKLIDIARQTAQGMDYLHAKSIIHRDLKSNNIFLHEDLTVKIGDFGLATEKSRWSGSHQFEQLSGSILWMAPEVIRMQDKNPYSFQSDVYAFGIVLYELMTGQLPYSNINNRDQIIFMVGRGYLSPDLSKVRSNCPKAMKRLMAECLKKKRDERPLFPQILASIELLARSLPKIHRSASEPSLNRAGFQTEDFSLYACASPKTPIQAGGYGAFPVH
Sequence of Serine/threonine-protein kinase B-raf (Homo sapiens, UniProt P15056) (P15056 whole entry): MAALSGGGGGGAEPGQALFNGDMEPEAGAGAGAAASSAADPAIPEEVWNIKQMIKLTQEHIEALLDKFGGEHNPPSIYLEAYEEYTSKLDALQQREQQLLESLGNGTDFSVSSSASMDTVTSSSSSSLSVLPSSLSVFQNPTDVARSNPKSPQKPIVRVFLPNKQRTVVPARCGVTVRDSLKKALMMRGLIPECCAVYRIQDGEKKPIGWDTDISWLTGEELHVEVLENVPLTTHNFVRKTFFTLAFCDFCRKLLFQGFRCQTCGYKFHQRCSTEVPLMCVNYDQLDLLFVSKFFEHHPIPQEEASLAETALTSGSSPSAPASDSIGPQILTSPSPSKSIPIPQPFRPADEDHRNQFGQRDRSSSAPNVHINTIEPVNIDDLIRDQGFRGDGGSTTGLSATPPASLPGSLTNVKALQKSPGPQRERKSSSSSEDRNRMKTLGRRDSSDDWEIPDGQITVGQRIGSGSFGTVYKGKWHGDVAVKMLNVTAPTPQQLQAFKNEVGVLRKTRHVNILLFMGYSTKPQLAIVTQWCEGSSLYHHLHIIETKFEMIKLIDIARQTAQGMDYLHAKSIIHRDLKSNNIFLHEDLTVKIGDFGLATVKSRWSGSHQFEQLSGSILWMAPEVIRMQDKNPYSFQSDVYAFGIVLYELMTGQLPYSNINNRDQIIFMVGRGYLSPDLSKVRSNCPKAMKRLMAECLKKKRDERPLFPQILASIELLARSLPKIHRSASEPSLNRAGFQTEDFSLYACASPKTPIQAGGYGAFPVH
Sequence of Histone deacetylase 1 (Q13547 whole entry): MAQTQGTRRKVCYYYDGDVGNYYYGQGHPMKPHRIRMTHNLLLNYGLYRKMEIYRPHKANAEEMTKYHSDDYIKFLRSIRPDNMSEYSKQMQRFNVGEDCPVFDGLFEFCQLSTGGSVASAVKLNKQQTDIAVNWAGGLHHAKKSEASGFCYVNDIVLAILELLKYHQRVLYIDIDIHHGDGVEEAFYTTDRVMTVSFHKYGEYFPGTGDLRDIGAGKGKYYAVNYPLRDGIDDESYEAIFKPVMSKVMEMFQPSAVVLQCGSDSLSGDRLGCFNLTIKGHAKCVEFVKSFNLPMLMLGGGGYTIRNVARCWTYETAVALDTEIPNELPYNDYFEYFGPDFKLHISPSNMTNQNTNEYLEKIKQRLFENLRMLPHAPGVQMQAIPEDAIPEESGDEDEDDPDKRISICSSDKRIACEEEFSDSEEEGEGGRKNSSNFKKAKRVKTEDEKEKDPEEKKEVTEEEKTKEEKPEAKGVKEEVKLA

`COc1ccc(-c2ocnc2-c2cc(OC)c(OC)c(OC)c2)cc1OCCCC(=O)NO` gave an IC50 (518A2) of 180 nM, an IC50 at 72 h [1] greater than 50000 nM and an IC50 (HepG2) of 180 nM. It also gave an IC50 (Huh-7) of 180 nM, an IC50 (HCT-116 [2]) of 180 nM and an IC50 [3] of roughly 1000 nM. The IC50 (HCT 116 TP53(-/-)) was 180 nM.

For `O=C(NO)c1ccc(CN(Cc2nnnn2Cc2ccccc2)C(=O)c2ccccc2C(F)(F)F)cc1`, the IC50 (HL-60) was 22500 nM, the IC50 (MOLT-4 [4]) was 22500 nM and the IC50 (K562) was 22500 nM. It also gave an IC50 [3] of 60 nM, an IC50 (CCRF-HSB-2) of 22500 nM and an IC50 (Jurkat) of 22500 nM. It also gave an IC50 (TALL-1) of 22500 nM.

`Nc1nc2ccc(OC(F)(F)F)cc2s1` [RILUZOLE] gave an IC50 (MCF7 [5]) greater than 10000 nM, an IC50 (PC-3) greater than 10000 nM and an IC50 (SK-N-BE(2)) greater than 10000 nM. The IC50 (MDA-MB-231) was greater than 10000 nM, the IC50 (KG-1) was greater than 10000 nM and the IC50 (MOLT-4 [6]) was greater than 10000 nM. For the same compound, the IC50 (HEL) was greater than 10000 nM.

`COc1cc2c(Oc3ccc(NC(=O)C4CCN(c5ccc(F)cc5)C4=O)cc3)ccnc2cc1OCCCCCCC(=O)NO` (centres undefined) showed an IC50 (A549 [7]) of 280 nM, an IC50 (Histone deacetylase 1) of 27 nM and an IC50 (HCT-116 [8]) of 280 nM. The IC50 (MCF7 [9]) was 280 nM.

With `O=C(NO)c1ccc(CNc2cccc3cc(-c4ccncc4)cnc23)cc1` the IC50 (HCT-116 [10]) was 1290 nM, the IC50 (A549 [11]) was 1290 nM and the IC50 [12] was 8.16 nM.

`O=C(CCCCCCNc1nccc(-c2sc(-c3ccccc3)nc2-c2cccc(NS(=O)(=O)c3c(F)cccc3F)c2F)n1)NO` showed an IC50 (HCT-116 [13]) of 310 nM, an IC50 [14] of 1.71 nM and an IC50 [15] of 1.71 nM. It also gave an IC50 [3] of 15.6 nM.

For `CN(C)c1nc2c(Br)c(Br)c(Br)c(Br)c2n1CCCCCCCC(=O)NO`, the IC50 (HL-60) was 2320 nM, the IC50 (HL60/ADR) was 2320 nM and the IC50 [16] was 2320 nM. It also gave an IC50 (HCT-116 [13]) of 2320 nM, an IC50 [17] of 2320 nM and an IC50 (MCF7 [18]) of 2320 nM. For the same compound, the IC50 (Jurkat) was 2320 nM.
